Like-named read-outs stand apart in the source and are kept apart here.

The target in assay [1] is T1, glutathione-S-transferase (GST) tagged LXRbeta LBD (ligand binding domain) (Homo sapiens, UniProt P55055).
T1 construct: purchased Invitrogen pv4658.pps
T1 sequence (P55055 222-460 limits assumed): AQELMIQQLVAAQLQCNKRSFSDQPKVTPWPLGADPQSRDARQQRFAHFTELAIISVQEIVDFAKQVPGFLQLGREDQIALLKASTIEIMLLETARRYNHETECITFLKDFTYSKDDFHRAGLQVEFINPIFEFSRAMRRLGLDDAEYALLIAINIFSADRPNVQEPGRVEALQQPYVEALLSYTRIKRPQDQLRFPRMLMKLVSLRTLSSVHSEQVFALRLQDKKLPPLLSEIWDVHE
The experiment in a line: LanthaScreen TR-FRET Liver X Receptor Coactivator Assay, LXR beta. It counts as biochemical. To be noted: for Emax: read-out: LXR beta actiivty at max dose (%); for EC50: potency (Inflection Point) of compound-induced co-activator recruitment, TR-FRET. An outline of the steps: (§1)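 LXR alpha- or beta-LBD was added to test compounds, then a mix of fluorescein-labelled coactivator peptide and terbium anti-GST antibody. After room-temperature incubation, TR-FRET was read on a filter-based reader.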

In assay [2] the target is T2, glutathione-S-transferase (GST) tagged LXRalpha LBD (ligand binding domain) (Homo sapiens, UniProt Q13133).
T2 construct: purchased Invitrogen pv4655
T2 sequence (Q13133 209-447 limits assumed): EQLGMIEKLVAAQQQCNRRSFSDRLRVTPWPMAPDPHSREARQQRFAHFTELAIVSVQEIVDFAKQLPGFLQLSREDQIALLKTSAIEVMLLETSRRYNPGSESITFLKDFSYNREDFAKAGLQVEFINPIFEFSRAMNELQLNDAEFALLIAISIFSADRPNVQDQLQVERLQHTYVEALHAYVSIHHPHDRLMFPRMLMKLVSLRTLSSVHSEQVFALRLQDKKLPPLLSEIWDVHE
Put plainly: LanthaScreen TR-FRET Liver X Receptor Coactivator Assay, LXR alpha. It counts as biochemical. The conditions noted are these: for Emax: read-out: LXR alpha actiivty at max dose (%); for EC50 / LXR alpha IP (nM): potency (Inflection Point) of compound-induced co-activator recruitment, TR-FRET. An outline of the steps: as §1
For orientation: TR-FRET usually uses a lanthanide donor and a delayed reading to cut background.

[3] abbreviates: efficacy (Emax) in relation to reference dual agonist T0901317.

On to `CN(C)C(=O)c1ccc(CCC[C@H]2CC23CCN(C(=O)[C@](O)(c2ccccc2)C(F)(F)F)CC3)cc1Cl` (single isomer, unassigned) [Example 17-2, 2-chloro-N,N-dimethyl-4-(3-((S or R)-6-((R or S)-3,3,3-trifluoro-2-hydroxy-2-phenylpropanoyl)-6-azaspiro[2.5]octan-1-yl)propyl)benzamide], for which the Emax worked out at 128% in assay [1] (setting [3]) and 35% in assay [2] (setting [3]). Also, the EC50 in assay [1] (read-out: LXR beta IP) was 25 nM; in assay [2] (read-out: LXR alpha IP), 395 nM.
As for `COc1cccc([C@@](O)(C(=O)N2CCC3(CC2)C[C@H]3CCCc2ccc(C(=O)NC3CC3)c(Cl)c2)C(F)(F)F)c1` (single isomer, unassigned) [Example 17-3, 2-chloro-N-cyclopropyl-4-(3-((R or S)-6-((R or S)-3,3,3-trifluoro-2-hydroxy-2-(3-methoxyphenyl)propanoyl)-6-azaspiro[2.5]octan-1-yl)propyl)benzamide], the Emax in assay [1] (setting [3]) turned out to be 43%; in assay [2] (setting [3]), 8%. In addition, the EC50 in assay [1] (read-out: LXR beta IP) amounted to 19 nM. For the same molecule, the “LXR alpha IP (nM)” value in assay [2] was “No IP”.
Consider `COc1cccc(C(O)(C(=O)N2CCC3(CCC(Cc4ccc(C(=O)N(C)C)c(Cl)c4)CC3)CC2)C(F)(F)F)c1` (single isomer, unassigned) [Example 18-1, 2-chloro-N,N-dimethyl-4-((3-((R or S)-3,3,3-trifluoro-2-hydroxy-2-(3-methoxyphenyl)propanoyl)-3-azaspiro[5.5]undecan-9-yl)methyl)benzamide], for which the EC50 in assay [1] (LXR beta IP (nM)) is 72 nM; in assay [2] (read-out: LXR alpha IP), 739 nM. For the same molecule, the values for the Emax in assay [1] and in assay [2] (setting [3]) were 65% and 21%, respectively.
For `COc1cccc(C(O)(C(=O)N2CCC3(CCC(Sc4ccc(C(=O)N(C)C)c(Cl)c4)CC3)CC2)C(F)(F)F)c1` (single isomer, unassigned) [Example 19-1, 2-chloro-N,N-dimethyl-4-(3-((R or S)-3,3,3-trifluoro-2-hydroxy-2-(3-methoxyphenyl)propanoyl)-3-azaspiro[5.5]undecan-9-ylthio)benzamide], the EC50 is 58 nM in assay [1] (LXR beta IP (nM)) and 1060 nM in assay [2] (read-out: LXR alpha IP). The results for the Emax in assay [1] and in assay [2] (setting [3]) were 101% and 23%, respectively.
In the case of `CN(C)C(=O)c1ccc(SC2CCC3(CC2)CCN(C(=O)C(O)(c2cc(Cl)cc(Cl)c2)C(F)(F)F)CC3)cc1Cl` (single isomer, unassigned) [Example 19-2, 2-chloro-4-(3-((R or S)-2-(3,5-dichlorophenyl)-3,3,3-trifluoro-2-hydroxypropanoyl)-3-azaspiro[5.5]undecan-9-ylthio)-N,N-dimethylbenzamide], the Emax in assay [1] (setting [3]) is 74%; in assay [2] (setting [3]), 8%. Moreover, the EC50 in assay [1] (read-out: LXR beta IP) came to 38 nM. Besides, the “LXR alpha IP (nM)” value in assay [2] is “No IP”.
For `CCOc1cccc(C(O)(C(=O)N2CCC3(CCC(Sc4ccc(C(=O)N(C)C)c(Cl)c4)CC3)CC2)C(F)(F)F)c1` (single isomer, unassigned) [Example 19-3, 2-chloro-4-(3-((S or R)-2-(3-ethoxyphenyl)-3,3,3-trifluoro-2-hydroxypropanoyl)-3-azaspiro[5.5]undecan-9-ylthio)-N,N-dimethylbenzamide], the results for the Emax in assay [1] (setting [3]) and in assay [2] (setting [3]) were 95% and 0%, respectively. Besides, in assay [1] (read-out: LXR beta IP), the EC50 was determined as 136 nM. Further, the “LXR alpha IP (nM)” value in assay [2] is “No IP”.
In assay [1] (LXR beta IP (nM)), `CN(C)C(=O)c1ccc([S+]([O-])C2CCC3(CC2)CCN(C(=O)C(O)(c2cc(Cl)cc(Cl)c2)C(F)(F)F)CC3)cc1Cl` (single isomer, unassigned) [Example 20-1, 2-chloro-4-(3-((R or S)-2-(3,5-dichlorophenyl)-3,3,3-trifluoro-2-hydroxypropanoyl)-3-azaspiro[5.5]undecan-9-ylsulfinyl)-N,N-dimethylbenzamide] showed an EC50 of 938 nM. Besides, the figures for the Emax in assay [1] and in assay [2] were 50% and 0%, respectively. Moreover, in assay [2], the “LXR alpha IP (nM)” value is reported as “No IP”.
Molecule `CN(C)C(=O)c1ccc(S(=O)(=O)C2CCC3(CC2)CCN(C(=O)C(O)(c2cc(Cl)cc(Cl)c2)C(F)(F)F)CC3)cc1Cl` (single isomer, unassigned) [Example 21-1, 2-chloro-4-(3-((R or S)-2-(3,5-dichlorophenyl)-3,3,3-trifluoro-2-hydroxypropanoyl)-3-azaspiro[5.5]undecan-9-ylsulfonyl)-N,N-dimethylbenzamide] gave an EC50 in assay [1] (LXR beta IP (nM)) of 1460 nM. Moreover, the Emax in assay [1] turned out to be 50%; in assay [2] it was 0%. Further, the “LXR alpha IP (nM)” value in assay [2] was “No IP”.
`COc1cccc([C@@](O)(C(=O)N2CCC([C@H]3C[C@H]3CSc3ccc(C(=O)N(C)C)c(Cl)c3)CC2)C(F)(F)F)c1` (single isomer, unassigned) [Example 23-1, 2-chloro-N,N-dimethyl-4-(((1R,2R or 1S,2S)-2-(1-((R or S)-3,3,3-trifluoro-2-hydroxy-2-(3-methoxyphenyl)propanoyl)piperidin-4-yl)cyclopropyl)methylthio)benzamide]: the figures for the Emax in assay [1] (setting [3]) and in assay [2] (setting [3]) were 118% and 24%, respectively. In addition, the results for the EC50 in assay [1] (read-out: LXR beta IP) and in assay [2] (read-out: LXR alpha IP) were 27 nM and 946 nM, respectively.
On to `CNC(=O)c1ccc(NCCCCC2CCN(C(=O)C3(c4ccccc4)CCCC3)CC2)cc1Cl` [Example 1-4, 2-chloro-N-methyl-4-(4-(1-(1-phenylcyclopentanecarbonyl)piperidin-4-yl)butylamino)benzamide], for which the results for the Emax in assay [1] (setting [3]) and in assay [2] (setting [3]) were 42% and 2%, respectively. For the same molecule, in assay [1] (read-out: LXR beta IP), the EC50 worked out at 183 nM. Moreover, the “LXR alpha IP (nM)” value in assay [2] is on record as “No IP”.
`CN(C)C(=O)c1ccc(NCCCC2CCN(S(=O)(=O)c3c(Cl)cccc3Cl)CC2)cc1Cl` [Example 1-12, 2-chloro-4-(3-(1-(2,6-dichlorophenylsulfonyl)piperidin-4-yl)propylamino)-N,N-dimethylbenzamide]: the Emax amounted to 82% in assay [1] (setting [3]) and 46% in assay [2] (setting [3]). Besides, the EC50 is 27 nM in assay [1] (read-out: LXR beta IP) and 855 nM in assay [2] (read-out: LXR alpha IP).
With `CN(C)C(=O)c1ccc(NCCC2CCN(C(=O)OCc3ccccc3)CC2)cc1Cl` [Example 1-13, benzyl 4-(2-(3-chloro-4-(dimethylcarbamoyl)phenylamino)ethyl)piperidine-1-carboxylate], the Emax came to 21% in assay [1] (setting [3]) and 12% in assay [2] (setting [3]). The EC50 in assay [1] (read-out: LXR beta IP) was found to be 104 nM. For the same molecule, the “LXR alpha IP (nM)” value in assay [2] is given as “No IP”.
Take `CN(C)C(=O)c1ccc(NCCCCC2CCN(C(=O)OCc3ccccc3)CC2)cc1Cl` [Example 1-14, benzyl 4-(4-(3-chloro-4-(dimethylcarbamoyl)phenylamino)butyl)piperidine-1-carboxylate]: the Emax in assay [1] (setting [3]) was 41%; in assay [2] (setting [3]), 14%. In addition, the EC50 in assay [1] (read-out: LXR beta IP) turned out to be 106 nM; in assay [2] (read-out: LXR alpha IP), 1970 nM.
Consider `CN(C)C(=O)c1ccc(NCCCCC2CCN(C(=O)C(O)(c3ccccc3)C(F)(F)F)CC2)nc1Cl` (centres unmarked) [Example 2-1, 2-chloro-N,N-dimethyl-6-(4-(1-(3,3,3-trifluoro-2-hydroxy-2-phenylpropanoyl)piperidin-4-yl)butylamino)nicotinamide], for which the EC50 was determined as 29 nM in assay [1] (read-out: LXR beta IP) and 1250 nM in assay [2] (LXR alpha IP (nM)). Moreover, the Emax in assay [1] was 52%; in assay [2] it was 25%.
For `CN(C)C(=O)c1ccc(N(C)CCC2CC3(CCN(C(=O)C(C)(C)c4ccccc4)CC3)C2)nc1Cl` [Example 12-1, 2-chloro-N,N-dimethyl-6-(methyl(2-(7-(2-methyl-2-phenylpropanoyl)-7-azaspiro[3.5]nonan-2-yl)ethyl)amino)nicotinamide], the EC50 in assay [1] (read-out: LXR beta IP) is 430 nM. In addition, the Emax in assay [1] amounted to 34%. Besides, in assay [2], the “LXR alpha IP (nM)” value is reported as “No IP” and the Emax turned out to be 5%.
Turning to `CN(Cc1ccc(C(=O)N(C)C)c(Cl)c1)CC1CC12CCN(C(=O)C(C)(C)c1ccccc1)CC2` (centres unmarked) [Example 14-1, 2-chloro-N,N-dimethyl-4-((methyl((6-(2-methyl-2-phenylpropanoyl)-6-azaspiro[2.5]octan-1-yl)methyl)amino)methyl)benzamide], the results for the Emax in assay [1] (setting [3]) and in assay [2] (setting [3]) were 99% and 33%, respectively. Moreover, the EC50 turned out to be 1260 nM in assay [1] (read-out: LXR beta IP) and 15500 nM in assay [2] (read-out: LXR alpha IP).
On to `CN(C)C(=O)c1ccc(CCCCC2CCN(C(=O)C(C)(C)c3ccccc3)CC2)cc1Cl` [Example 15-4, 2-chloro-N,N-dimethyl-4-(4-(1-(2-methyl-2-phenylpropanoyl)piperidin-4-yl)butyl)benzamide], for which the Emax was 103% in assay [1] (setting [3]) and 39% in assay [2] (setting [3]). Besides, the values for the EC50 in assay [1] (read-out: LXR beta IP) and in assay [2] (read-out: LXR alpha IP) were 32 nM and 463 nM, respectively.

For the origin of these results see US10894775B2, “Piperidine derivatives as liver X receptor beta agonists, compositions, and their use” (Merck Sharp & Dohme Corp., priority 2016, dated 2021).
